According to publication PMC4300089, “Structure-Guided Design of Selective Epac1 and Epac2 Agonists” (PLoS Biology, 2015):
Several values for one entry are separate records, joined by “and”; a condition that tells them apart may be missing. Equal entries are not always repeated.

Key:
Epac1 = target: T1, Epac1 (Homo sapiens, UniProt O95398); set-up: method as in PMID 12888551; details: footnote c, see also ref 13; cited from earlier work
T1 construct: made in house
T1 sequence (O95398 150-881 isoform O95398-3): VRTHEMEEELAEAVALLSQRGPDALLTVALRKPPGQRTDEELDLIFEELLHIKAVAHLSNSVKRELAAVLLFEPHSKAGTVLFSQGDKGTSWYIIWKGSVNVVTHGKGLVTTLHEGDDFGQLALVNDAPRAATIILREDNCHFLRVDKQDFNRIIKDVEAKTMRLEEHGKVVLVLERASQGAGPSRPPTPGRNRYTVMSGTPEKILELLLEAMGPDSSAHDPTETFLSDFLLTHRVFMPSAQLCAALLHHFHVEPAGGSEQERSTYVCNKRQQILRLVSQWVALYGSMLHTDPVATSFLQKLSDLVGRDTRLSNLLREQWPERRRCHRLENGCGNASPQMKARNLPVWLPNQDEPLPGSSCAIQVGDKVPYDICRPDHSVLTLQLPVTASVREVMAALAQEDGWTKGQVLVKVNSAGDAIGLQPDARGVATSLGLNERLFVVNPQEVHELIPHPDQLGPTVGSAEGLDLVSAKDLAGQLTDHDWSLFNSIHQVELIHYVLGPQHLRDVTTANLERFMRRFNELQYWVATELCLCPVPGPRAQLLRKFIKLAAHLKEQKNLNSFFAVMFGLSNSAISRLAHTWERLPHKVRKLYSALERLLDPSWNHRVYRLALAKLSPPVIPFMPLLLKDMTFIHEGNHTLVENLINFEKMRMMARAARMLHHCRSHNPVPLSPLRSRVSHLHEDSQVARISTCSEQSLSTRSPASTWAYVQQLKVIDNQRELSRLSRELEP

Epac2^Δ280,K450E = target: T2, Epac2^Δ280,K450E (Mus musculus, UniProt Q9EQZ6, K468E); assay: Epac activation assay, Epac2 K450E mutant; type: biochemical
T2 construct: made in house
T2 sequence (Q9EQZ6 281-993 isoform Q9EQZ6-3 K450E): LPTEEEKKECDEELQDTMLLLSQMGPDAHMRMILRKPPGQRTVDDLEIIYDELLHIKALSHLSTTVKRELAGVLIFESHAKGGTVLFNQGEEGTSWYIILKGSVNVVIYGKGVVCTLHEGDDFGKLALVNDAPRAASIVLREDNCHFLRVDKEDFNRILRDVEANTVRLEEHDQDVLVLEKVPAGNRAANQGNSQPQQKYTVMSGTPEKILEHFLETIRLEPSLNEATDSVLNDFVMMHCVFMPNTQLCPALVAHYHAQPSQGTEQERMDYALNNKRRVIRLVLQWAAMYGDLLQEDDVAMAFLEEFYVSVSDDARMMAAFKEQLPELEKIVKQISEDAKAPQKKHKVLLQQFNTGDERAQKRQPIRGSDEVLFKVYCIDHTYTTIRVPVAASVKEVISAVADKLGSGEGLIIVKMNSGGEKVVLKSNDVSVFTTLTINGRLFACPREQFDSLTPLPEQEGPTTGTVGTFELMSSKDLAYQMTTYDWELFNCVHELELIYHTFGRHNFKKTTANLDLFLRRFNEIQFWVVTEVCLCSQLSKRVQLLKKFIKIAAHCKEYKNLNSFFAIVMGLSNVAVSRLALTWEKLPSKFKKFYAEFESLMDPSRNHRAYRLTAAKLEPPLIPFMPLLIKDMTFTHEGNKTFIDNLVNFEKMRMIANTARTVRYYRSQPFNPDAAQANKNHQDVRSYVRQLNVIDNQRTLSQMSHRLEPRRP
Method: Murine Epac2 was used as all previous structural studies were performed with it.
The activity of Epac was determined by a fluorescence assay. […] The fluorescence intensity of Rap1B•mGDP is approximately twice that of free mGDP, and thus, nucleotide exchange can be observed as a decay in fluorescence upon the addition of excess unlabeled GDP.

## Nc1ncnc2c1nc(Sc1ccc(Cl)cc1)n2[C@@H]1O[C@@H]2COP(=O)(O)O[C@H]2[C@H]1O [L-026, 8-pCPT-cAMP]
Epac1
  AC50: 0.9 µM

## Nc1ncnc2c1ncn2C1OC2COP(O)(=S)OC2C1O (stereo not drawn) [S-000, Sp-cAMPS]
Epac1
  AC50: 90 µM
  Rel. kmax: 1.4^c
Epac2^Δ280,K450E; 0.01 μM compound
  kobs: 4.6e-05 s⁻¹
Epac2^Δ280,K450E; 0.05 μM compound
  kobs: 6.3e-05 s⁻¹
Epac2^Δ280,K450E; 0.08 μM compound
  kobs: 7.4e-05 s⁻¹
Epac2^Δ280,K450E; 0.1 μM compound
  kobs: 8e-05 s⁻¹ and 9.8e-05 s⁻¹
Epac2^Δ280,K450E; 0.3 μM compound
  kobs: 0.000139 s⁻¹
Epac2^Δ280,K450E; 0.4 μM compound
  kobs: 0.000171 s⁻¹
Epac2^Δ280,K450E; 0.5 μM compound
  kobs: 0.000194 s⁻¹
Epac2^Δ280,K450E; 0.6 μM compound
  kobs: 0.000231 s⁻¹
Epac2^Δ280,K450E; 0.7 μM compound
  kobs: 0.000249 s⁻¹
Epac2^Δ280,K450E; 0.8 μM compound
  kobs: 0.000268 s⁻¹
Epac2^Δ280,K450E; 1 μM compound
  kobs: 0.000297 s⁻¹
Epac2^Δ280,K450E; 2 μM compound
  kobs: 0.000427 s⁻¹
Epac2^Δ280,K450E; 3 μM compound
  kobs: 0.000527 s⁻¹
Epac2^Δ280,K450E; 4 μM compound
  kobs: 0.000575 s⁻¹
Epac2^Δ280,K450E; 5 μM compound
  kobs: 0.000593 s⁻¹
Epac2^Δ280,K450E; 6 μM compound
  kobs: 0.000641 s⁻¹
Epac2^Δ280,K450E; 7 μM compound
  kobs: 0.000636 s⁻¹
Epac2^Δ280,K450E; 8 μM compound
  kobs: 0.00067 s⁻¹
Epac2^Δ280,K450E; 10 μM compound
  kobs: 0.000647 s⁻¹
Epac2^Δ280,K450E; 20 μM compound
  kobs: 0.000817 s⁻¹
Epac2^Δ280,K450E; 30 μM compound
  kobs: 0.000851 s⁻¹
Epac2^Δ280,K450E; 40 μM compound
  kobs: 0.00083 s⁻¹
Epac2^Δ280,K450E; 50 μM compound
  kobs: 0.000833 s⁻¹
Epac2^Δ280,K450E; 60 μM compound
  kobs: 0.000819 s⁻¹
Epac2^Δ280,K450E; 70 μM compound
  kobs: 0.000826 s⁻¹
Epac2^Δ280,K450E; 80 μM compound
  kobs: 0.000827 s⁻¹
Epac2^Δ280,K450E; 100 μM compound
  kobs: 0.000823 s⁻¹
